The target in assay [1] is T1, Gal4-HNF4α (human HNF4α LBD) (Homo sapiens, UniProt P41235).
T1 construct: uniprot entry: P41235-1, residues 142-377; expressed in transfected cells; host or cells: HEK293T
T1 sequence (P41235 142-377): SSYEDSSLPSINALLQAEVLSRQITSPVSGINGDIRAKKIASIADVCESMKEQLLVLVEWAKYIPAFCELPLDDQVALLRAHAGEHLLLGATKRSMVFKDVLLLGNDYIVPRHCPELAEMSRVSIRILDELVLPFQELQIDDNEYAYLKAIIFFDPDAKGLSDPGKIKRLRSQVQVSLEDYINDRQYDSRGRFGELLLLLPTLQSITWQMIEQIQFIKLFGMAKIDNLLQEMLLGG
The assay can be described thus: Hybrid Gal4-HNF4α reporter gene assay in transiently transfected HEK293T cells. The assay is classed as cell-based. As to conditions: for HNF4a-screening_activity_(mean_of_n=2): Table S1, primary screening; for Primary Screen (Fold Act., 50 µM): mean of two biologically independent repeats, vs. 0.2% DMSO.

For assay [2], the system named is Gal4–VP16. Kind of assay: Gal4-VP16 control experiment (reporter gene assay, HEK293T cells). The assay is classed as cell-based. As to conditions: mean ± SD. Here is the method: The frame and sequence of the fusion plasmid were verified by sequencing. pFR-Luc (Stratagene) was used as reporter plasmid and pRL-SV40 (Promega, Madison, WI, USA) served for normalization of transfection efficiency and cell growth. The Gal4-VP16 [25] expressed from plasmid pECE-SV40-Gal4-VP16 [26] […] Assay Procedure: HEK293T cells were grown in Dulbecco’s Modified Eagle Medium (DMEM) high glucose, supplemented with 10% Fetal Bovine Serum (FCS), sodium pyruvate (1 mM), penicillin (100 U/mL), and streptomycin (100 μg/mL) at 37 °C and 5% CO2. The day before transfection, HEK293T cells were seeded in 96-well plates (3.0·10^4 cells/well). Before transfection, the medium was changed to Opti-MEM without supplements. Transient transfection was carried out using Lipofectamine LTX reagent (Invitrogen, Carlsbad, CA, USA) according to the manufacturer’s protocol with pFR-Luc (Stratagene), pRL-SV40 (Promega), and the pFA-CMV-hHNF4α-LBD clone or pECE-SV40-Gal4-VP16 for control experiments. Five hours after transfection, the medium was changed to Opti-MEM supplemented with penicillin (100 U/mL), streptomycin (100 μg/mL), now additionally containing 0.1% DMSO (0.2% in the primary screen) and the respective test compounds or 0.1% DMSO (0.2% in the primary screen) alone as the untreated control. In the primary screening, the core set of the Prestwick Drug Fragment Library (Prestwick Chemical, Illkirch, France) was tested at 50 µM concentration in two biologically independent repeats. In the follow-up and dose-response profiling, each concentration was tested in duplicates in at least three biologically independent repeats. Following overnight (12−14 h) incubation with the test compounds, cells were assayed for luciferase activity using Dual-Glo™ luciferase assay system (Promega) according to the manufacturer’s protocol. Luminescence was measured with a Tecan Spark 10M luminometer (Tecan Group Ltd., Männedorf, Switzerland). […] Fold activation was obtained by dividing the mean RLU of test compounds at a respective concentration by the mean RLU of untreated control.

The test system of assay [3] is HNF4α-regulated gene fructose-1,6-bisphosphatase 1 (FBP1). The assay can be described thus: FBP1 mRNA expression in HepG2 cells by qRT-PCR. The assay is classed as cell-based, human. The settings on record: 8 h, vs 0.1% DMSO.
Where [4] appears, read: 50 µM, mean ± SD, at least four repeats.
Where [5] appears, read: 100 µM, mean ± SD, at least four repeats.

The structures appear in SMILES notation. “And” between values parts separate entries of the source, which are not always exact repeats. Equal values may be shown once. “Also recorded” adds a separate entry of the source. Read-outs that look alike come from different tables or passages of the source.

On to `Cc1cc(=O)n(-c2ccccc2)[nH]1` [Prestw-Frag-3742, Cc1cc(=O)n([nH]1)-c1ccccc1], for which the “HNF4a-screening_activity_(mean_of_n=2)” value in assay [1] (50 µM) is recorded as 0.8727.
Same read-out and setting: then `Cc1nc(-c2ccccc2)cs1` [Prestw-Frag-3743, Cc1nc(cs1)-c1ccccc1], with 1.125; and `c1ccc(-n2ccnc2)cc1` [Prestw-Frag-3744, c1cn(cn1)-c1ccccc1], with 1.014; and `Cc1nc(-c2ccccc2F)cs1` [Prestw-Frag-3745, Cc1nc(cs1)-c1ccccc1F], with 1.103.
As for `NCCc1ccc(F)cc1F` [Prestw-Frag-3746, NCCc1ccc(F)cc1F], in assay [1] (50 µM), the “HNF4a-screening_activity_(mean_of_n=2)” value turned out to be 1.162.
Take `NCc1cscn1` [Prestw-Frag-3747, NCc1cscn1]: in assay [1] (50 µM), the “HNF4a-screening_activity_(mean_of_n=2)” value was found to be 0.9617.
On the same count and under the same terms, then `NCCOCc1ccccc1` [Prestw-Frag-3749, NCCOCc1ccccc1], with 0.8708; and `c1ccc2c(c1)CCNCC2` [Prestw-Frag-3750, C1Cc2ccccc2CCN1], with 1.099.
Same read-out and setting: then `NCC1(c2ccccc2)CC1` [Prestw-Frag-3751, NCC1(CC1)c1ccccc1], with 0.9761; and `Cc1[nH]cnc1CO` [Prestw-Frag-3752, Cc1[nH]cnc1CO], with 1.105.
For the compound `c1nc(C2CCNCC2)c[nH]1` [Prestw-Frag-3753, C1CC(CCN1)c1c[nH]cn1], the “HNF4a-screening_activity_(mean_of_n=2)” value in assay [1] (50 µM) was 0.9547.
As to `CNC(=O)c1cc(Cl)c(N)cc1OC` [Prestw-Frag-3754, CNC(=O)c1cc(Cl)c(N)cc1OC], in assay [1] (50 µM), the “HNF4a-screening_activity_(mean_of_n=2)” value came out at 1.064.
The same measure, in the same setting: the result for `CC(CO)Nc1ccccc1` (stereo not shown) [Prestw-Frag-3755, CC(CO)Nc1ccccc1] reads 0.8925.
As for `CC(=O)C1CCNCC1` [Prestw-Frag-3756, CC(=O)C1CCNCC1], in assay [1] (50 µM), the “HNF4a-screening_activity_(mean_of_n=2)” value is reported as 0.9377.
The same measure, in the same setting: the result for `CC1CCC(=O)O1` (stereo not shown) [Prestw-Frag-3757, CC1CCC(=O)O1] reads 1.285; that for `c1ccc(-n2cccn2)cc1` [Prestw-Frag-3759, c1cnn(c1)-c1ccccc1], 1.212.
`Cc1cc(C(C)(C)CC(C)(C)C)ccc1O` [compound 1, Cc1cc(ccc1O)C(C)(C)CC(C)(C)C]: the “VP16 Control (fold activation of reporter activity)” value in assay [2] (50 µM) was 0.80 ± 0.07 (50 µM) fold activation. Moreover, the “Primary Screen (Fold Act., 50 µM)” value in assay [1] (50 µM) was found to be 2.48 fold activation. Further, in assay [1] (setting [4]), the “Follow-up HNF4α (fold activation of reporter activity)” value is 1.1 ± 0.2 (50 µM) fold activation. Moreover, the “HNF4a-screening_activity_(mean_of_n=2)” value in assay [1] (50 µM, listed as Prestw-Frag-1016) is 2.483 and 1.264.
`COc1ccc2c(c1)OCC2=O` [compound 2, COc1ccc2C(=O)COc2c1]: in assay [2] (50 µM), the “VP16 Control (fold activation of reporter activity)” value is 1.3 ± 0.3 (50 µM) fold activation. In addition, the “Primary Screen (Fold Act., 50 µM)” value in assay [1] (50 µM) was found to be 1.55 fold activation. Besides, in assay [1] (setting [4]), the “Follow-up HNF4α (fold activation of reporter activity)” value is 1.3 ± 0.2 (50 µM) fold activation. Further, the “HNF4a-screening_activity_(mean_of_n=2)” value in assay [1] (50 µM, listed as Prestw-Frag-1362) was 0.8621 and 1.554.
`Nc1nc2cc(C(=O)c3ccccc3)ccc2[nH]1` [compound 3]: the “VP16 Control (fold activation of reporter activity)” value in assay [2] (50 µM) is on record as 1.7 ± 0.3 (50 µM) fold activation. In addition, in assay [1] (50 µM), the “Primary Screen (Fold Act., 50 µM)” value is reported as 2.09 fold activation. The “Follow-up HNF4α (fold activation of reporter activity)” value in assay [1] (setting [4]) is given as 1.5 ± 0.2 (50 µM) fold activation.
On to `O=C(Nc1ccccc1Cl)c1ccccc1O` [compound 4, Oc1ccccc1C(=O)Nc1ccccc1Cl], for which the “FBP1 mRNA expression” value in assay [3] (HepG2, 50 µM) is “promoted FBP1 expression; also recorded: tendency to enhanced FBP1 mRNA levels”.
For `CC(C)CC(N)C1(c2ccc(Cl)cc2)CCC1` (stereo not shown) [compound 5, CC(C)CC(N)C1(CCC1)c1ccc(Cl)cc1], in assay [2] (100 µM), the “VP16 Control (fold activation of reporter activity)” value was 1.1 ± 0.1 (100 µM) fold activation. For the same compound, in assay [1] (50 µM), the “Primary Screen (Fold Act., 50 µM)” value is on record as 1.80 fold activation. Moreover, the “Follow-up HNF4α (fold activation of reporter activity)” value in assay [1] (setting [4]) is “tendency for HNF4α modulation”; in assay [1] (setting [5]), 2.5 ± 0.2 (100 µM) fold activation. Besides, the “HNF4α Ligand Type” value in assay [1] (Gal4-HNF4α assay) is on record as “Agonist”. In addition, the “HNF4a-screening_activity_(mean_of_n=2)” value in assay [1] (50 µM, listed as Prestw-Frag-1566) is 0.9114 and 1.797. Moreover, the EC50 in assay [1] (dose-response, mean ± SD, at least four repeats, read-out: Validated HNF4α Modulation EC50) is greater than 100 µM. Besides, the “HNF4α vs. VP16 (p, t-test)” value in assay [1] (significance of Gal4-HNF4α follow-up vs Gal4-VP16 control at the same concentration) was “p < 0.0001 (***)”.
Turning to `Nc1ncn([C@@H]2O[C@H](CO)[C@@H](O)[C@H]2O)c(=O)n1` [compound 6, Nc1ncn([C@@H]2O[C@H](CO)[C@@H](O)[C@H]2O)c(=O)n1], the “FBP1 mRNA expression” value in assay [3] (HepG2, 10 µM) is “significantly promoted FBP1 expression”. Besides, the “HNF4α vs. VP16 (p, t-test)” value in assay [1] was “p = 0.0034 (**)”.
Turning to `Cc1nc(-c2ccccc2)c(-c2ccccc2)o1` [compound 8], the “VP16 Control (fold activation of reporter activity)” value in assay [2] (50 µM) is recorded as 0.92 ± 0.07 (50 µM) fold activation. Moreover, in assay [1] (setting [4]), the “Follow-up HNF4α (fold activation of reporter activity)” value was 1.1 ± 0.2 (50 µM) fold activation.
Take `O=C(O)c1cc(-c2ccccc2)ccc1O` [compound 9, OC(=O)c1cc(ccc1O)-c1ccccc1]: the “FBP1 mRNA expression” value in assay [3] (HepG2, 50 µM) is on record as “decreased FBP1 mRNA levels; also recorded: robustly decreased FBP1 expression”.
For `Cc1cc(=O)n(-c2ccc(C)c(C)c2)[nH]1` [compound 11, Cc1cc(=O)n([nH]1)-c1ccc(C)c(C)c1], the “VP16 Control (fold activation of reporter activity)” value in assay [2] (100 µM) was 0.21 ± 0.02 (100 µM) fold activation. Also, in assay [1] (50 µM), the “Primary Screen (Fold Act., 50 µM)” value is recorded as 0.32 fold activation. In addition, the results for the “Follow-up HNF4α (fold activation of reporter activity)” value in assay [1] (setting [4]) and in assay [1] (setting [5]) were “tendency for HNF4α modulation” and 0.21 ± 0.03 (100 µM) fold activation, respectively. In assay [1] (50 µM), the “HNF4a-screening_activity_(mean_of_n=2)” value stood at 0.3184.
